Test results from patent US20250345317A1, “New pharmaceutical compounds, methods and uses thereof” (BBIT-THERAPEUTICS, LDA., priority 2020, published 2025).

Experiments:
Assay type in all cases: cell-based, human
HCC1937 cells = assay: Wound healing assay (cell migration); conditions: 1.9 μM
Experimental: FIG. 12 illustrates the prevention of HCC1937 cells migration by COMP. Confluent cells were treated with 1.9 μM COMP or DMSO and observed at different time-points in the wound healing assay (scale bar=50 μm and magnification=100×).
In an embodiment, COMP prevented cell migration of triple-negative breast cancer cells. The effect of COMP on the migration ability of HCC1937 cells was also studied.

[1] = tested on: MDA-MB-231, HCC1937 and IGROV-1 cells; assay: DNA damage by comet assay; conditions: 6 μM and 12 μM, 48 hours
Experimental: FIG. 8 illustrates the effect of 6 and 12 μM COMP on triple-negative breast cancer and ovarian cancer cells' DNA damage after 48 hours of treatment, measured by comet assay. FIG. 8A are representative images (scale bar=20 μm; 200× magnification).
In an embodiment, COMP decreased homologous recombination DNA repair and disrupted the BRCA1-BARD1 interaction.

[2] = tested on: triple-negative breast cancer and ovarian cancer cells; assay: Cell cycle progression by flow cytometry (propidium iodide); conditions: MDA-MB-231 cells, 6 and 12 μM, 48 hours
Experimental: (§1) Cell cycle phases were analysed by flow cytometry using propidium iodide (PI) and quantified using the FlowJo software. Apoptosis and ROS were analysed by flow cytometry using FITC-Annexin V/PI and 2′,7′-dichlorodihydrofluorescein diacetate (H2DCFDA) respectively.
(§2) In an embodiment, the COMP compound modulated the expression of key proteins involved in homologous DNA repair, proliferation, chemoresistance, induced cell cycle arrest, apoptosis and ROS generation, in triple-negative breast cancer and ovarian cancer cells.

MCF-7 = assay: Growth inhibition, SRB assay, MCF-7; conditions: Homo sapiens, MCF7, 48 h
Text: (§3) Table 2 refers to the growth inhibitory effect of COMP, olaparib and cisplatin (CDDP) in a panel of human immortalized breast (T47D, MCF-7, MDA-MB-231, MDA-MB-468, SK-BR-3 and HCC1937), ovarian and endocervical (OCVAR, SKOV-3, […],IGROV-1 and HeLa), pancreatic (PANC-1 and MIAPACA), neuroblastoma (SHSY-5Y), lung (NCI-H460), prostate (VCaP) melanoma (A375 and SK-MEL-5) and glioblastoma (SF-208) cancer cells, immortalized normal MCF10a and HFF1 human cells, and patient-derived ovarian (PD-OVCA #1, #9, #41, #49 and #62) cancer cells. […] Data are mean±SEM (n=5).
(§4) In an embodiment, IC50 values were determined by Sulforhodamine B (SRB) or MTS [3-(4,5-dimethylthiazol-2-yl)-5-(3-carboxymethoxyphenyl)-2-(4-sulfophenyl)-2H-tetrazolium] assay in immortalized and PD-OVCA cells, respectively. Cancer cells were plated in 96-well plates and incubated for 24 hours. Cells were then exposed to serial dilutions of compounds for 48 hours. The solvent DMSO corresponding to the maximum concentration used in these assays (0.025%) was included as control. Results are the mean±S.E.M. of 3-5 independent experiments.

BRCA1-BARD1 interaction = assay: Co-IP of BRCA1-BARD1 interaction; conditions: 12 and 20 μM; 18 hours (MDA-MB-231, HCC1937), 24 hours (IGROV-1)
Experimental: (FIGS. 11A-D) Co-IP was performed in MDA-MB-231 (FIG. 11A), HCC1937 (FIG. 11B) and IGROV-1 (FIG. 11C) cells treated with 12 and 20 μM COMP for 18 hours (in MDA-MB-231 and HCC1937 cells) and 24 hours (in IGROV-1 cells). Assay was performed using the Pierce classic magnetic IP and Kit followed by western blot detection. In FIGS. 11A-C, representative immunoblots are shown; whole-cell lysate (Input).

MCF10a = assay: Growth inhibition, SRB assay, normal MCF10a cells; conditions: Homo sapiens, MCF-10A, 48 hours
Text: as §3, §4

[3] = tested on: key proteins involved in homologous recombination, proliferation and chemoresistance; assay: Protein expression by western blot; conditions: 12 μM, 48 hours
Experimental: FIG. 6 illustrates the effect of 12 μM COMP on the (A-B) expression of key proteins involved in homologous recombination, proliferation and chemoresistance in triple-negative breast cancer and ovarian cancer cells after 48 hours of treatment.
as §2

SK-BR-3 = assay: Growth inhibition, SRB assay, SK-BR-3; conditions: Homo sapiens, SK-BR-3, 48 h
Text: as §3, §4

[4] = tested on: triple-negative breast cancer and ovarian cancer cells; assay: Apoptosis by flow cytometry (FITC-Annexin V/PI); conditions: 6 and 12 μM, 48 hours
Experimental: as §1

HCC1937 mammospheres = assay: 3D-mammosphere model
Experimental: FIG. 5 illustrates the effect of COMP on (A-B) HCC1937 mammosphere formation after 72 hours of treatment with COMP; treatment was performed at seeding time of HCC1937 cells or at (C-D) three-day-old HCC1937 mammospheres for up to 11 days of treatment. FIG. 5A and FIG. 5C are representative images (scale bar=50 μm, 100× magnification).

## CC[C@H]1CN(C)C2Cc3c([nH]c4ccccc34)/C(=N/Nc3ccc(Br)cn3)C[C@@H]1[C@@H]2C(=O)OC [COMP, methyl (5R,6S,14S,E)-8-(2-(5-bromopyridin-2-yl) hydrazineylidene)-5-ethyl-3-methyl-2,3,4,5,6,7,8,9-octahydro-1H-2,6-methanoazecino [5,4-b]indole-14-carboxylate]
HCC1937 cells
  wound closure: significantly reduced the wound closure
[1]
  percentage of comet-positive cells (tail DNA, tail moment): significantly increased
[2]
  cell cycle arrest phase: cell cycle arrest at G0/G1-
MCF-7; MCF-7, BRCA1 wild-type, 48 hours (second Table 2)
  IC50: 12 µM
MCF-7; MCF-7, wild-type BRCA1/2, 48 hours
  IC50: 12 ± 1.5 µM
BRCA1-BARD1 interaction
  BRCA1-BARD1 interaction (BARD1 co-immunoprecipitated with BRCA1): disruption of the BRCA1-BARD1 interaction
MCF10a
  IC50: 29.5 µM
[3]
  PUMA and cleaved PARP protein expression levels: increase
  expression levels of DNA damage repair proteins (BRCA1, BRCA2, RAD51, RAD52, FANCD2, pATM, pATR) and resistance-related proteins (CDK2, survivin, BARD1): significantly decreased
  expression of p21: increased expression of p21
SK-BR-3; SK-BR-3, BRCA1 loss of heterozigoty, 48 hours
  IC50: 5.7 ± 1.4 µM
SK-BR-3; SK-BR-3, BRCA1 loss of heterozygosity, 48 hours (second Table 2)
  IC50: 5.7 µM
[4]
  apoptotic cell death (Annexin-V-positive cells): significant increase in apoptotic cell death
HCC1937 mammospheres; 6 μM and 12 μM, up to 11 days
  mammosphere growth in three-day old spheroids: markedly reduced
HCC1937 mammospheres; 6 μM, added upon seeding of HCC1937 cells, 72 hours
  mammosphere (spheroids) formation: complete abolishment of spheroids formation
HCC1937 mammospheres; 12 μM, up to 11 days
  mammosphere integrity in three-day old spheroids: triggering mammosphere disintegration
